Two compounds from patent publication US7468462B2, “Therapeutic agents for the treatment of cancer, metabolic diseases and skin disorders” (Auspex Pharmaceuticals, priority 2004, dated 2008) can be followed below.

This assay has as its target T1, RAR-α (Homo sapiens, UniProt P10276).
T1 construct: The Plasmid pGEG-hRAR-α for full-length RAR-α expression; made in house; host or cells: E. coli BL21 (DE3)
T1 sequence (P10276 1-462): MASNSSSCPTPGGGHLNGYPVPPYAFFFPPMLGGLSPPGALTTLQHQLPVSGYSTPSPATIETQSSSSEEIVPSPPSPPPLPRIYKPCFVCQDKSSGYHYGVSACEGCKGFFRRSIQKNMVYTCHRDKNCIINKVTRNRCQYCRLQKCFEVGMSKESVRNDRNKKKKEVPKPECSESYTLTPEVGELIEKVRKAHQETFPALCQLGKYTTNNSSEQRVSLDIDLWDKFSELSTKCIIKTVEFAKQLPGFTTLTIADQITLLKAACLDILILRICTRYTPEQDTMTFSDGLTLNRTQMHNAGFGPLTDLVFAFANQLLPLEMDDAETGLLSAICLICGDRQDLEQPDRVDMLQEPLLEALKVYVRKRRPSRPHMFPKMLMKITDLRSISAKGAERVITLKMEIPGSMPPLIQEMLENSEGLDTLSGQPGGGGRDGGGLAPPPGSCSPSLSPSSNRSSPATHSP
Briefly: Competitive radioligand (tritium labeled tRA) hydroxylapatite binding assay in E. coli expressed RAR-α. Conditions: read-out: Kd (mircomolar). As for the experimental part: After correcting for non-specific binding, IC50 values were determined.

Broadly, the Kd is the free concentration of one partner at which half of the binding sites on the other are occupied at equilibrium, for simple one-to-one binding.

In the case of `COc1ccc(-c2ccc3cc(C(=O)O)ccc3c2)cc1C12CC3CC(CC(C3)C1)C2` [Adapalene], the equilibrium dissociation constant (Kd) worked out at 0.3 µM.

With `COc1ccc(-c2ccc3cc(C4=C(O)CCC4=O)ccc3c2)cc1C12CC3CC(CC(C3)C1)C2` [Example 8, 2-[6-(3-Adamantan-1-yl-4-methoxyphenyl)-naphthalen-2-yl]-3-hydroxy-cyclopent-2-enone], the Kd came out at 16 µM.
